Results taken from US20140186261A1, “ANTI-TUMOR AGENT AND ANTI-TUMOR KIT” (NIHON MEDI-PHYSICS CO., LTD., priority 2012, published 2014).
Like-named read-outs stand apart in the source and are kept apart here. Each block holds one compound with its values, some of them ahead of it.

Assays:
[1] = format: in vivo, BALB/c nude mice
Description: 5-FU was repeatedly intraperitoneally administered to BALB/c nude mice (male, 7-week old, about 25 g in body weight, obtained from Japan SLC, Inc.) at 25 mg/kg, 50 mg/kg, or 100 mg/kg once a day for 4 days. Body weight was measured at the 5th day from the first starting day of administration and later to determine the rate of body weight reduction. The rate of body weight reduction was calculated based on the following equation.
Body weight reduction rate(%)=[{(Body weight at day prior to the date of first 5-FU administration)−(Body weight measured after start of 5-FU administration)}/(Body weight at day prior to the date of first 5-FU administration)]×100
Saline was administered to a control group in place of 5-FU.

[2] = system: CD133+ cells in HT29 tumor; format: in vivo, BALB/c nude mice; conditions: tumor removed 2 days after 64Cu-ATSM administration; 5-FU 25 mg/kg x4 days, 64Cu-ATSM 37 or 74 MBq; anti-CD133 flow cytometry; 6 mice
Description: (§1) Human large bowel cancer-derived HT29 cells were purchased from ATCC and proliferated for use. […] At the final day of 5-FU administration, 37 MBq (1 mCi) of ^64Cu-ATSM was administered through the tail vein.
(§2) Cu-ATSM. The tumor size in mice was measured 2, 4, 8, 12, or 15 days after starting the administration of 5-FU. Cells obtained from the tumor removed at 2 days after the administration of ^64Cu-ATSM were subjected to the detection of apoptotic cells and CD133-positive (CD133+) cells using flow cytometry (Guava flow cytometry, from Millipore Corporation). The detection of apoptotic cells was performed using Annexin V (Mouse Anti-Human Annexin V FITC, AbD MCA2712F, from Serotec Co., Ltd.). The detection of CD133+cells was performed using an anti-CD133 antibody (CD133/1(A133)-PE, from Miltenyi Biotec K.K.).
In FIG. 3, the results of percentages of CD133+cells in the removed tumor are expressed in average and standard deviation for 6 mice.

[3] = system: Human large bowel cancer-derived HT29 cells; experiment: Anti-tumor effect of 64Cu-ATSM and 5-FU in HT29 tumor-bearing mouse (tumor volume); format: in vivo, BALB/c nude mice; conditions: HT29 tumor-bearing mice; 5-FU 25 mg/kg i.p. once a day x4 days; 64Cu-ATSM 37 MBq (74 MBq in Comparative Example 3) via tail vein at final day; measured to day 15; 6 mice
Description: as §1, §2
The experiment was carried out in the same way as Example 2 except for administering saline in place of ^64Cu-ATSM.
The experiment was carried out in the same way as Example 2 except for administering saline in place of 5-FU.
Saline was administered in place of 5-FU. The dose of ^64Cu-ATSM was 74 MBq (2 mCi). The experiment was carried out in the otherwise same way as Example 2.
The volume of tumor was calculated from the size of tumor measured in Example 2 and Comparative Examples 1 to 3; the change thereof with time is shown in FIG. 1. […]

HT29 cells [4] = experiment: Anti-tumor effect of repeated administration of 64Cu-ATSM and 5-FU in HT29 tumor-bearing mouse (tumor volume); format: in vivo, BALB/c nude mice; conditions: HT29 tumor-bearing mice; two cycles (start day 1 and 25th day) of 5-FU 25 mg/kg i.p. x4 days and 64Cu-ATSM 37 MBq at final day; to day 34; 6 mice
Description: The HT29 tumor-bearing model was prepared in the same way as Example 2; 1 week after the implantation of HT29 cells, 5-FU was repeatedly intraperitoneally administered at 25 mg/kg once a day for 4 days; and at the final day (4th day) of 5-FU administration, 37 MBq (1 mCi) of ^64Cu-ATSM was administered through the tail vein. The administration of 5-FU was again started at the 25th day from the start of 5-FU administration, with 25 mg/kg thereof repeatedly administered once a day for 4 days. At the final day of 5-FU administration, 37 MBq (1 mCi) of ^64Cu-ATSM was then administered through the tail vein. […] The tumor size in mice was measured 2, 4, 8, 12, 14, 16, 20, 24, 27, 31, or 34 days after starting the administration of 5-FU.
The experiment was carried out in the same way as Example 7 except for administering saline in place of ^64Cu-ATSM.
The experiment was carried out in the same way as Example 7 except for administering saline in place of 5-FU.
The volume of tumor was calculated from the size of tumor measured in Example 7 and Comparative Examples 6 and 7; the change thereof with time is shown in FIG. 5. In FIG. 5, the tumor volume at the day prior to the day of the first start of 5-FU administration was set to 100%, and the percentage based thereon was given. In FIG. 5, data are expressed in average and standard deviation for 6 mice.

[5] = system: Human large bowel cancer-derived HT29 cells; experiment: Detection of apoptotic cells in removed HT29 tumor by flow cytometry (Annexin V); format: in vivo, BALB/c nude mice; conditions: tumor removed 2 days after 64Cu-ATSM administration, 5-FU 25 mg/kg x4 days, 64Cu-ATSM 37 or 74 MBq, 6 mice
Description: as §1, §2
In FIG. 2, the results of percentages of apoptotic cells in the removed tumor are expressed in average and standard deviation for 6 mice.

HT29 cells [6] = experiment: Anti-tumor effect of 64Cu-ATSM and 6TG or PT in HT29 tumor-bearing mouse (tumor volume); format: in vivo, BALB/c nude mice; conditions: HT29 tumor-bearing mice; 6TG 12.5 mg/kg or PT 200 mg/kg i.p. once a day x4 days; 64Cu-ATSM 37 MBq via tail vein at final day (74 MBq alone in Comparative Example 3); to day 15; 6 mice
Description: (§3) The HT29 tumor-bearing model was prepared in the same way as Example 2, and 1 week after the implantation of HT29 cells, 6TG was repeatedly intraperitoneally administered at 12.5 mg/kg once a day for 4 days. At the final day of 6TG administration, 37 MBq (1 mCi) of ^64Cu-ATSM was administered through the tail vein. […] The tumor size in mice was measured 2, 4, 8, 12, or 15 days after starting the administration of 6TG.
The experiment was carried out in the same way as Example 5 except for administering saline in place of ^64Cu-ATSM.
as §3, with “PT” for “6TG”, “200” for “12.5”, “PT.” for “6TG.”
The experiment was carried out in the same way as Example 6 except for administering saline in place of ^64Cu-ATSM.
The volume of tumor was calculated from the size of tumor measured in Examples 5 and 6 and Comparative Examples 4 and 5; the change thereof with time is shown in FIG. 4. In FIG. 4, the tumor volume at the day prior to the day of the start of 6TG or PT administration was set to 100%, and the percentage based thereon was given. In FIG. 4, data are expressed in average and standard deviation for 6 mice. In addition, the results of Example 2 and Comparative Examples 1 to 3 were shown together in FIG. 4.

[7] = Study of dose of 6TG using nude mouse (rate of body weight reduction, death)
Description: 6TG was repeatedly intraperitoneally administered to BALB/c nude mice (male, 7-week old, about 25 g in body weight, obtained from Japan SLC, Inc.) at 12.5 mg/kg, 25 mg/kg, or 50 mg/kg once a day for 4 days. Body weight was measured at the 5th day from the first starting day of administration and later to determine the rate of body weight reduction. The rate of body weight reduction was calculated based on the following equation.
Body weight reduction rate(%)=[{(Body weight at day prior to the date of first 6TG administration)−(Body weight measured after start of 6TG administration)}/(Body weight at day prior to the date of first 6TG administration)]×100
Saline was administered to a control group in place of 6TG. In Table 2, they were expressed in average and standard deviation for 4 mice.

[8] = Study of dose of PT using nude mouse (rate of body weight reduction); format: in vivo, BALB/c nude mice; conditions: for Rate of Body Weight Reduction (%): average ± SD, 4 mice
Description: PT was repeatedly intraperitoneally administered to BALE/c nude mice (male, 7-week old, about 25 g in body weight, obtained from Japan SLC, Inc.) at 25, 50, 100, or 200 mg/kg once a day for 4 days. Body weight was measured at the 5th day from the first starting day of administration and later to determine the rate of body weight reduction. The rate of body weight reduction was calculated based on the following equation.
Body weight reduction rate(%)=[{(Body weight at day prior to the date of first PT administration)−(Body weight measured after start of PT administration)}/(Body weight at day prior to the date of first PT administration)]×100
Saline was administered to a control group in place of PT. In Table 3, they were expressed in average and standard deviation for 4 mice.

[9] = system: CD133-positive cells in tumor; conditions: Yoshii et al. (2011), Nucl. Med. Biol. 38, 151-157; cited from earlier work
tumor = conditions: compared with 18FDG; Japanese Patent Laid-Open No. 2010-13380; cited from earlier work
CD133-positive cells = conditions: Yoshii et al. (2010), Nucl. Med. Biol. 37, 395-404; cited from earlier work

Compound: O=c1[nH]cc(F)c(=O)[nH]1 [5-FU, 5-Fluorouracil]
death of mice ([1]; 5-FU 50 mg/kg i.p. once a day for 4 days): died at the 10th or 11th day from administration
death of mice ([1]; 5-FU 100 mg/kg i.p. once a day for 4 days): died at the 7th or 8th day from administration
percentage of CD133+ cells in tumor (FIG. 3) [2]: can kill CD133+cells
tumor volume, change with time (FIG. 1; % of volume at day prior to start of 5-FU administration) [3]: did not suppress the proliferation of tumor
tumor volume, change with time (FIG. 5; % of volume at day prior to first start of 5-FU administration) (HT29 cells [4]): could hardly suppress the proliferation of tumor
percentage of apoptotic cells in tumor (FIG. 2) [5]: apoptosis of tumor cells was confirmed

Compound: Nc1nc2nc[nH]c2c(=S)[nH]1 [6TG, 6-Thioguanine]
tumor volume, change with time (FIG. 4; % of volume at day prior to start of 6TG or PT administration) (HT29 cells [6]): could not suppress the proliferation of tumor
death of mice ([7]; 6TG 25 mg/kg i.p. once a day for 4 days): died at the 13th to 15th day from administration
death of mice ([7]; 6TG 50 mg/kg i.p. once a day for 4 days): died at the 6th to 8th day from administration

Rate of Body Weight Reduction (%) ([8]; PT 25 mg/kg/day i.p. once a day for 4 days, 5th Day): −8.42 ± 12.36%
Rate of Body Weight Reduction (%) ([8]; PT 25 mg/kg/day i.p. x4 days, 9th Day): −12.11 ± 13.3%
Rate of Body Weight Reduction (%) ([8]; PT 25 mg/kg/day i.p. x4 days, 12th Day): −10.94 ± 12.04%
Rate of Body Weight Reduction (%) ([8]; PT 25 mg/kg/day i.p. x4 days, 16th Day): −14.11 ± 11.25%
Rate of Body Weight Reduction (%) ([8]; PT 25 mg/kg/day i.p. x4 days, 18th Day): −15.38 ± 9.65%
Rate of Body Weight Reduction (%) ([8]; PT 50 mg/kg/day i.p. x4 days, 5th Day): −3.94 ± 7.7%
Rate of Body Weight Reduction (%) ([8]; PT 50 mg/kg/day i.p. x4 days, 9th Day): −12.12 ± 5.33%
Rate of Body Weight Reduction (%) ([8]; PT 50 mg/kg/day i.p. x4 days, 12th Day): −12.91 ± 7.21%
Rate of Body Weight Reduction (%) ([8]; PT 50 mg/kg/day i.p. x4 days, 16th Day): −16.03 ± 8.57%
Rate of Body Weight Reduction (%) ([8]; PT 50 mg/kg/day i.p. x4 days, 18th Day): −15.41 ± 11.86%
Rate of Body Weight Reduction (%) ([8]; PT 100 mg/kg/day i.p. x4 days, 5th Day): −5.03 ± 8.95%
Rate of Body Weight Reduction (%) ([8]; PT 100 mg/kg/day i.p. x4 days, 9th Day): −12.82 ± 9.29%
Rate of Body Weight Reduction (%) ([8]; PT 100 mg/kg/day i.p. x4 days, 12th Day): −16.86 ± 8.46%
Rate of Body Weight Reduction (%) ([8]; PT 100 mg/kg/day i.p. x4 days, 16th Day): −20.08 ± 9.11%
Rate of Body Weight Reduction (%) ([8]; PT 100 mg/kg/day i.p. x4 days, 18th Day): −21.05 ± 6.18%
Rate of Body Weight Reduction (%) ([8]; PT 200 mg/kg/day i.p. x4 days, 5th Day): −5.75 ± 9.93%
Rate of Body Weight Reduction (%) ([8]; PT 200 mg/kg/day i.p. x4 days, 9th Day): −15.25 ± 10.49%
Rate of Body Weight Reduction (%) ([8]; PT 200 mg/kg/day i.p. x4 days, 12th Day): −18.1 ± 9.64%
Rate of Body Weight Reduction (%) ([8]; PT 200 mg/kg/day i.p. x4 days, 16th Day): −18.1 ± 9.64%
Rate of Body Weight Reduction (%) ([8]; PT 200 mg/kg/day i.p. x4 days, 18th Day): −17.19 ± 9.86%
rate of body weight reduction ([8]; PT, all groups (25, 50, 100, 200 mg/kg once a day for 4 days), even at the 18th day): ≤ 10%
Compound: Nc1nc2[nH]cc(CCc3ccc(C(=O)N[C@@H](CCC(=O)O)C(=O)O)cc3)c2c(=O)[nH]1 [PT, Pemetrexed]
tumor volume, change with time (FIG. 4; % of volume at day prior to start of 6TG or PT administration) (HT29 cells [6]): could not suppress the proliferation of tumor

Compound: diacetyl-bis(N4-methylthiosemicarbazone) copper complex [^64Cu-ATSM]
amount of CD133-positive cells in tumor and tumor size [9]: decreased the amount of CD133-positive cells in tumor to shrink the tumor
tumor volume, change with time (FIG. 4; % of volume at day prior to start of 6TG or PT administration) (HT29 cells [6]): could suppress the proliferation of tumor depending on the dose thereof
percentage of CD133+ cells in tumor (FIG. 3) [2]: can kill CD133+cells
sites of accumulation in tumor (tumor): accumulate in sites different from those for ^18FDG in tumor
tumor volume, change with time (FIG. 1; % of volume at day prior to start of 5-FU administration) [3]: suppressed the proliferation of tumor depending on the dose thereof
tumor volume, change with time (FIG. 5; % of volume at day prior to first start of 5-FU administration) (HT29 cells [4]): suppressed the proliferation of tumor depending on the dose thereof
percentage of apoptotic cells in tumor (FIG. 2) [5]: apoptosis of tumor cells was confirmed
accumulation in CD133-positive cells (CD133-positive cells): accumulates in CD133-positive cells
